{"source": "patent US5763235A", "about": "(priority 1994, dated 1998)", "key": {"[1]": {"system": "ALA dehydratase variant of strain CR-514", "assay": "ALA dehydratase reaction with crude enzyme of strain CR-514", "assay_type": "biochemical, Rhodobacter sphaeroides CR-514", "settings": "enzyme of CR-514, unit not given (concentrations in method in mM)"}, "[2]": {"biological_target": "ALA dehydratase variant of strain CR-520", "assay": "ALA dehydratase reaction with crude enzyme of strain CR-520", "assay_type": "biochemical, Rhodobacter sphaeroides CR-520", "settings": "inhibitor constant of levulinic acid, Dixon plot; enzyme of CR-520; 37° C., 60 minutes; unit not given (concentrations in method in mM)"}, "[3]": {"biological_target": "ALA dehydratase of Rhodobacter sphaeroides CR-450", "assay": "ALA dehydratase reaction with crude enzyme of CR-450 (Comparative Example 2)", "assay_type": "biochemical", "settings": "inhibitor constant of levulinic acid, Dixon plot, 37° C., 60 minutes, unit not given (concentrations in method in mM)"}, "[4]": {"system": "Rhodobacter sphaeroides IFO 12203", "settings": "glycine 30 mM, 30° C., dark", "protocol": "(§1) A 500 ml portion of medium 1 was prepared in a 2 l capacity shaking flask. This was sterilized at 121° C. for 15 minutes and then spontaneously cooled.\n(§2) Separately from this, each of the mutant strains CR-514, CR-520 and CR-533 obtained in Example 3 was inoculated into a 21 mm.phi. test tube containing 10 ml of medium 1 which was sterilized in the same manner as described in the foregoing and cultured in the dark at 30° C. for 48 hours on a shaker.\n(§3) The entire portion of each culture broth was inoculated into the aforementioned shaking flask and cultured in the dark at 30° C. for 48 hours on a shaker, and the resulting cells were collected by centrifugation.\n(§4) The thus collected cells were suspended in 150 ml of sterilized medium 1, to a wet cell density of about 0.3 g/10 ml, and the cell suspension was mixed with 30 mM of glycine and dispensed in 10 ml portions into 21 mm.phi. test tubes. After adding varied concentration of levulinic acid, shaking culture was carried out at 30° C. in the dark.\n(§5) (Clinical Chemistry, 36(8): 1494 (1990))."}, "strain CR-514": {"system": "strain CR-514", "settings": "glycine 30 mM, 30° C., dark", "protocol": "as §1, §2, §3, §4, §5"}, "strain CR-520": {"system": "strain CR-520", "settings": "glycine 30 mM, 30° C., dark", "protocol": "as §1, §2, §3, §4, §5"}, "strain CR-533": {"system": "strain CR-533", "settings": "glycine 30 mM, 30° C., dark", "protocol": "as §1, §2, §3, §4, §5"}, "[5]": {"system": "Rhodobacter sphaeroides CR-450", "settings": "glycine 30 mM, 30° C., dark", "protocol": "as §1, §2, §3, §4, §5\nThe process of Example 4 was conducted, except that Rhodobacter sphaeroides CR-450 was used and the amount of levulinic acid was changed as shown in Table 3."}, "[6]": {"biological_target": "ALA dehydratase of strain CR-533", "settings": "inhibitor constant of levulinic acid, Dixon plot; enzyme of CR-533; 37° C., 60 minutes; unit not given (concentrations in method in mM)"}}, "note": "Like-named read-outs stand apart in the source and are kept apart here."}
{"compound": "NCC(=O)CCC(=O)O", "note": "[ALA, 5-aminolevulinic acid]", "values": [{"measurement": "Km", "setting": "[1]; Michaelis constant for ALA, Lineweaver-Burk", "result": 0.76, "unit": "mM"}]}
{"compound": "CC(=O)CCC(=O)O", "note": "[levulinic acid]", "values": [{"measurement": "Ki", "setting": "[1]; inhibitor constant of levulinic acid, Dixon plot, 37° C., 60 minutes", "result": 0.21, "unit": "mM"}, {"measurement": "Ki", "setting": "[2]", "result": 0.07, "unit": "mM"}, {"measurement": "Ki", "setting": "[3]", "result": 0.37, "unit": "mM"}, {"measurement": "Amount of ALA formed after 15 hours", "setting": "[4]; levulinic acid 5 mM", "result": 0.01, "unit": "mM"}, {"measurement": "Amount of ALA formed after 30 hours", "setting": "[4]; levulinic acid 5 mM", "result": 0, "unit": "mM"}, {"measurement": "Amount of ALA formed after 15 hours", "setting": "[4]; levulinic acid 15 mM", "result": 0.1, "unit": "mM"}, {"measurement": "Amount of ALA formed after 30 hours", "setting": "[4]; levulinic acid 15 mM", "result": 0, "unit": "mM"}, {"measurement": "Amount of ALA formed after 15 hours", "setting": "strain CR-514; levulinic acid 1 mM", "result": 1.5, "unit": "mM"}, {"measurement": "Amount of ALA formed after 30 hours", "setting": "strain CR-514; levulinic acid 1 mM", "result": 1.5, "unit": "mM"}, {"measurement": "Amount of ALA formed after 15 hours", "setting": "strain CR-514; levulinic acid 5 mM", "result": 2.0, "unit": "mM"}, {"measurement": "Amount of ALA formed after 30 hours", "setting": "strain CR-514; levulinic acid 5 mM", "result": 3.0, "unit": "mM"}, {"measurement": "Amount of ALA formed after 15 hours", "setting": "strain CR-514; levulinic acid 10 mM", "result": 2.2, "unit": "mM"}, {"measurement": "Amount of ALA formed after 30 hours", "setting": "strain CR-514; levulinic acid 10 mM", "result": 4.1, "unit": "mM"}, {"measurement": "Amount of ALA formed after 15 hours", "setting": "strain CR-520; levulinic acid 0.5 mM", "result": 2.0, "unit": "mM"}, {"measurement": "Amount of ALA formed after 30 hours", "setting": "strain CR-520; levulinic acid 0.5 mM", "result": 2.8, "unit": "mM"}, {"measurement": "Amount of ALA formed after 15 hours", "setting": "strain CR-520; levulinic acid 1 mM", "result": 2.5, "unit": "mM"}, {"measurement": "Amount of ALA formed after 30 hours", "setting": "strain CR-520; levulinic acid 1 mM", "result": 4.5, "unit": "mM"}, {"measurement": "Amount of ALA formed after 15 hours", "setting": "strain CR-520; levulinic acid 5 mM", "result": 3.0, "unit": "mM"}, {"measurement": "Amount of ALA formed after 30 hours", "setting": "strain CR-520; levulinic acid 5 mM", "result": 6.5, "unit": "mM"}, {"measurement": "Amount of ALA formed after 15 hours", "setting": "strain CR-533; levulinic acid 5 mM", "result": 1.7, "unit": "mM"}, {"measurement": "Amount of ALA formed after 30 hours", "setting": "strain CR-533; levulinic acid 5 mM", "result": 2.4, "unit": "mM"}, {"measurement": "Amount of ALA formed after 15 hours", "setting": "strain CR-533; levulinic acid 15 mM", "result": 2.4, "unit": "mM"}, {"measurement": "Amount of ALA formed after 30 hours", "setting": "strain CR-533; levulinic acid 15 mM", "result": 3.9, "unit": "mM"}, {"measurement": "Amount of ALA formed after 15 hours", "setting": "strain CR-533; levulinic acid 30 mM", "result": 2.2, "unit": "mM"}, {"measurement": "Amount of ALA formed after 30 hours", "setting": "strain CR-533; levulinic acid 30 mM", "result": 3.3, "unit": "mM"}, {"measurement": "Amount of ALA formed after 15 hours", "setting": "[5]; levulinic acid 5 mM", "result": 1.5, "unit": "mM"}, {"measurement": "Amount of ALA formed after 30 hours", "setting": "[5]; levulinic acid 5 mM", "result": 1.5, "unit": "mM"}, {"measurement": "Amount of ALA formed after 15 hours", "setting": "[5]; levulinic acid 15 mM", "result": 2.5, "unit": "mM"}, {"measurement": "Amount of ALA formed after 30 hours", "setting": "[5]; levulinic acid 15 mM", "result": 3.8, "unit": "mM"}, {"measurement": "Amount of ALA formed after 15 hours", "setting": "[5]; levulinic acid 30 mM", "result": 2.0, "unit": "mM"}, {"measurement": "Amount of ALA formed after 30 hours", "setting": "[5]; levulinic acid 30 mM", "result": 2.5, "unit": "mM"}, {"measurement": "Ki", "setting": "[6]", "result": 0.36, "unit": "mM"}]}
